The values that follow come from ChEMBL document CHEMBL1133550, “(2,2':6',2"-Terpyridine)platinum(II) complexes are irreversible inhibitors of Trypanosoma cruzi trypanothione reductase but not of human glutathione reductase” (J Med Chem, 2000).

Series [1] can be described thus: Half-life was measured in the presence of NADPH at 20 uM. It is filed as ADME.
Series [2] addresses Trypanothione reductase (Trypanosoma cruzi) (UniProt P28593). Nature of the series: Tested for inhibition of NADPH-reduced trypanothione reductase (TR).
Series [3] in a line: Half-life was measured in the presence of NADPH at 20 uM; No inhibition. It is filed as ADME.
For series [4], the target named is Trypanothione reductase (Trypanosoma cruzi) (UniProt P28593). Nature of the series: Tested for inhibition of NADPH-reduced trypanothione reductase (TR); No inhibition.

Active and inactive are the calls of the source. The rule behind the calls is not given here.

Chain of UniProt P28593 (P28593 whole entry, looked up): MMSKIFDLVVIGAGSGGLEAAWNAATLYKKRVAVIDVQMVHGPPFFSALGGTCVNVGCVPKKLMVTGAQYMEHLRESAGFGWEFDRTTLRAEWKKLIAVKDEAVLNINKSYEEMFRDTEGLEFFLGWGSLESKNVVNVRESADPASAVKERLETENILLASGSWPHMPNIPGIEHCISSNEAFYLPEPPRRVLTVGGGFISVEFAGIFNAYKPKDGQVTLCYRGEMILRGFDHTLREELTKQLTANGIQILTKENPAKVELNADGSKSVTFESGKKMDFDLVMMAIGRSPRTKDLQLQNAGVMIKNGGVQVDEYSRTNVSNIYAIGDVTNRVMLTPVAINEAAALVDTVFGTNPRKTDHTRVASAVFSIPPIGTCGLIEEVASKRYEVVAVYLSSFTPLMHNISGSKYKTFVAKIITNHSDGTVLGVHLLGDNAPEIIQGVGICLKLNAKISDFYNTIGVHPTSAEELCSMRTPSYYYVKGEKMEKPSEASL

As to “(2-Hydroxyethanethiolato)(2,2':6'2''-terpyridine)platinum (II) Nitrate [listing 1 of 2 here]”, in series [1], the T1/2 is on record as 35 min.
On to “(2-Hydroxyethanethiolato)(2,2':6'2''-terpyridine)platinum (II) Nitrate [listing 2 of 2 here]”, for which the K obs in series [2] worked out at 40 M⁻¹ s⁻¹.
With “(4-Picoline)(2,2':6'2''-terpyridine)platinum (II) Bis (tetrafluoroborate) [listing 1 of 2 here]”, the T1/2 in series [1] amounted to 11 min.
In series [2], “(4-Picoline)(2,2':6'2''-terpyridine)platinum (II) Bis (tetrafluoroborate) [listing 2 of 2 here]” came in with a K obs of 85 M⁻¹ s⁻¹.
Turning to “(S-Glutathionato)-(4'-Chloro-2,2':6'2''-terpyridine)platinum (II) Nitrate [listing 1 of 2 here]”, in series [3], the NI entry was “Not Active”.
On to “(S-Glutathionato)-(4'-Chloro-2,2':6'2''-terpyridine)platinum (II) Nitrate [listing 2 of 2 here]”, for which the NI result in series [4] is “inactive”.
